Test results taken from patent publication US4044043A, “Derivatives of 9-oxo-13-trans-prostenoic acid esters” (American Cyanamid Company, priority 1975, dated 1977).
Values after ≈ are worked out from the molar mass of the structure shown. Where two headings read alike, the source gives them in different places.

Key:
[1] = tested on: Mycobacterium smegmatis ATCC 606; test: agar-dilution streak-plate antimicrobial assay; assay type: cell-based; conditions: Mycolicibacterium smegmatis, ATCC606, read-out: Minimal inhibitory conc. (6)
Method: The novel compounds of the present invention are also useful as antimicrobial agents. […] In this assay, the compounds to be tested are made up to contain 2.5 mg. of test compound per milliliter of solution. Observing sterile techniques, two-fold serial dilution are made of each test solution. One milliliter of each of the original solutions and of each of the serial dilutions is then added to 9 ml. of warm sterile nutrient agar capable of supporting growth of the bacterial test cultures. A second set of agar dilutions is prepared identical to the first except that the nutrient agar is designed to support the growth of the fungal test cultures. […] The test bacteria and yeast-like fungi are prepared for use by growing in broth overnight. The spores of the filamentous fungi are harvested from mature agar slant cultures and are suspended in sterile physiological saline solution. A loopful of each of the resulting live suspensions is then, still employing sterile techniques, streaked upon the surfaces of each of the agar plates and the resulting streaked plates are then incubated. After an appropriate period of time, each of the streaks on each of the plates is inspected visually and the extent, if any, of bacterial or fungal growth is noted. The minimal inhibitory concentration (expressed in micrograms per milliliter) is defined as the concentration of test compound causing complete inhibition of growth of any particular organism. In a representative operation, and merely by way of illustration, the minimal inhibitory concentration of typical compounds of the present invention against a variety of test organisms as determined in the above-described assay are set forth in Tables II and III below: […]

diastolic blood pressure = test: Prostaglandin-like hypotensive activity in anesthetized rats (minimal dose for about 10 mm. decrease in diastolic blood pressure); assay type: in vivo, Male Wistar strain rats; conditions: Rattus norvegicus; intravenous; decrease of about 10 mm. in diastolic blood pressure
Method: This procedure is a modification of the technique described by Pike et al., Prostaglandins, Nobel Symposium 2, Stockholm, June, 1966; p, 165.
Male Wistar strain rats (Royal Hart Farms) averaging approximately 250 grams in weight were fastened to rat boards in a supine position by means of canvas vests and limb ties. The femoral area was infiltrated subcutaneously with lidocaine and the iliac artery and vein exposed and cannulated. Arterial blood pressure (systolic/diastolic) was recorded using a Statham P23 Db pressure transducer-Offner dynograph system. To obtain a stable blood pressure, the animals were anesthetized before use with pentobarbital, 30 mg./kg. of body weight intravenously, and also were given hexamethonium bitartrate, 2 mg./kg. of body weight intravenously. The test compounds were prepared by ultrasonic dispersion in a saline-Tween 80 ® vehicle. A constant intravenous dose volume of 0.5 ml. was administered and test doses ranged from 0.1 to 10.0 mg./kg. of body weight. Increasing or decreasing doses were selected depending on the dose response obtained. In Table I below are set forth the minimal doses required to produce a decrease of about 10 mm. in diastolic blood pressure for typical compounds of the present invention.

[2] = tested on: dl-PGE1-induced contraction of gerbil colon; test: Inhibition of dl-PGE1-Induced Contraction of Gerbil Colon (prostaglandin antagonist action); assay type: cell-based, gerbils (Meriones unguiculatus); conditions: Meriones unguiculatus, 1 min
Method: The compounds of this invention are also useful as antagonists of prostaglandin action and accordingly they are potentially useful as anti-inflammatory agents, and as agents for the treatment of periodontal diseases and diarrhea. Testing for prostaglandin antagonist action is carried out in the following manner. Sections of ascending colon, approximately 20 mm. long, from mature male gerbils (Meriones unguiculatus) weighing 70-80 g. were mounted in De Jalon's solution (154 mM NaCl; 5.95 mM NAHCO3; […], 5.64 mM KC and .27 mM CaCl2 in 20 ml. tissue baths) (L and K Glass Co., Lynnhurst, N.J.). The medium was continually gassed with a mixture of 95% 02 -5% CO2 and maintained at 37° C. The tissues were suspended via silk suture threads between a glass hook at the base and a model FT .03C force displacement transducer (Grass Instruments, Quincy, Massachusetts). Contractions were recorded on a Poly-Viso ® polygraph (Sanborn Co., Cambridge, Massachusetts). After mounting, tissues were allowed to stabilize 15-20 minutes during which time adjustments were made to establish and maintain a 0.5 g. resting tension on the muscle. Thereafter, test cycles of 3-5 minutes were begun and consisted of a 1 minute exposure to the potential antagonist, if called for, followed by a 1 minute exposure to the prostaglandin agonist, a 15-30 sec. washout and a recovery period of 2-2.5 minutes. […] During the washout period, the tissue was rinsed with a measured amount equalling 8 volumes of medium. Muscle relaxation was virtually complete by the end of the washout period. During preliminary tests it was noted that a final concentration of 200 ng./ml. of a racemic mixture of synthetic prostaglandin-E1 (dl-PGE1) produced maximal muscle contraction. Following stabilization, muscles were exposed 2 to 3 times to this concentration of dl-PGE1 until a consistent response was recorded. Once maximal responses were established, test cycles with potential antagonists were commenced and were followed alternately with prostaglandin-only test cycle. […] The contraction of the muscle induced by 200 ng./ml. dl-PGE1 following exposure to a given concentration of the potential antagonist was always compared to the response of the tissue to that level of dl PGE1 in the immediately preceding cycle. Using a series of potential antagonist concentrations, an approximate ID50 (concentration at which 50% inhibition was observed) was established. The compounds were also tested against a sub-maximal prostaglandin challenge (20 ng./ml. dl-PGE1) in which case activity is reported in terms of a 50% inhibition of maximum response.

[3] = tested on: bronchospasms elicited by acetylcholine; test: Bronchodilator Activity (Konzett Assay) against acetylcholine; assay type: in vivo, guinea pigs; conditions: Cavia porcellus; three logarithmic cumulative intravenous doses
Method: (§1) Bronchodilator activity was determined in guinea pigs against bronchospasms elicited by intravenous injections of 5-hydroxytryptamine, histamine or acetylcholine by the Konzett procedure. [See J. Lulling, P. Lievens, F. El Sayed and J. Prignot, Arzeneimittel-Forschung, 18, 995 (1968)]. In Table IIIC which follows bronchodilator activity for representative compounds of this invention against one or more of the three spasmogenic agents is expressed as an ED50 determined from the results obtained with three logarithmic cumulative intravenous doses.

[4] = tested on: bronchospasms elicited by 5-hydroxytryptamine; test: Bronchodilator Activity (Konzett Assay) against 5-hydroxytryptamine; assay type: in vivo, guinea pigs; conditions: Cavia porcellus; three logarithmic cumulative intravenous doses
Method: as §1

[5] = tested on: bronchospasms elicited by histamine; test: Bronchodilator Activity (Konzett Assay) against histamine; assay type: in vivo, guinea pigs; conditions: Cavia porcellus; three logarithmic cumulative intravenous doses
Method: as §1

gastric acid secretion = test: Inhibition of Gastric Acid Secretion (Pylorous-Ligated Rat), Shay rat procedure; assay type: in vivo, rats (male, CFE strain); conditions: 100 mg./kg. intraduodenal, read-out: % Inhibition of Control Gastric Acid Secretion
Excerpt: The novel compounds of the present invention are also effective inhibitors of gastric acid secretion and of ulcer development in experimental animals, and thus are potentially valuable as agents for the control of gastric acid secretion and of gastric erosion and as anti-ulcer agents. Gastric acid secretion inhibitory action is usually measured by the Shay rat procedure ^(1,2) with some modifications as follows. 6 1. Shay et al., Gastroenterology, 5, 43 (1945). 6 2. Shay et al., Gastroenterology, 26, 906 (1954).
The rats (male, CFE strain) were starved for 48 hours (water was given ad libitum) to permit evacuation of stomach contents. On the morning of the experiment, under ether anesthesia, the abdominal region was shaved and a midline incision (1-1 1/2 inch) was made with a scalpel. With the help of a closed curved hemostat the duodenum was picked up. Upon getting the duodenum into view fingers were used to pull the stomach through the opening, the stomach was then gently manipulated with fingers to rid stomach of air and residual matter which were pushed through the pylorus. Two 5-inch sutures were drawn under the pyloric-duodenal puncture. A ligature, at the juncture, was formed with one of the threads. The second ligature was also formed but not tightened.
The test compound or the vehicle, usually 1 ml./100 g. body weight, were injected into the duodenum as close as possible to the first ligature. After injection the second ligature was tightened below the injection site to minimize leakage. The stomach was placed back through the opening into the abdominal cavity, the area of incision was washed with saline and the incision was closed with autoclips. (Ocasionally instead of an intraduodenal injection, animals were dosed by the oral or subcutaneous route. In the latter case, dosing was done thirty to sixty minutes before the operation).
The abdominal cavity was exposed by cutting with scissors and the esophagus close to the stomach was clamped off with a hemostat, the stomach was removed by cutting above the hemostat (the esophagus was cut) and between the two sutures. Extraneous tissue was removed, the stomach washed with saline and blotted on gauze. A slit was carefully made in the stomach which was held over a funnel and the contents were collected in a centrifuge tube. The stomach was further cut along the outside edge and turned inside out. Two ml. of water were used to wash the stomach contents into the respective centrifuge tube. The combined stomach contents and wash were then centrifuged out for 10 minutes in the International Size 2 Centrifuge (setting at 30). The supernatant was collected, volume measured and recorded, 2 drops of phenolphthalein indicator (1% in 95% ethanol) were added and the solution was titrated with 0.02N NaOH (or with 0.04N NaOH when large volumes of stomach contents were encountered) to pH 8.4 (because of usual coloring of the stomach contents, phenolphthalein was only used to permit visual indication that the end point was near) and the amount of acid present was calculated.
Compounds inducing inhibition of gastric acid secretion of 20% or more were considered active. In a representative operation, and merely by way of illustration, the results obtained with this assay with typical compounds of the present invention are given in Table IIIA.

[6] = 200 ng./ml. dl-PGE1, read-out: ID50 vs. 200 ng. of PGE1/ml.
[7] = sub-maximal challenge, 20 ng./ml. dl-PGE1, 50% inhibition of maximum response, read-out: ID50 vs. 20 ng. of PGE1/ml.

CCCCCC/C=C/[C@@H]1CCC(=O)[C@H]1CCCCCCC(=O)Oc1cccnc1 (relative stereo) [3-pyridyl 9-oxo-13-trans-prostenoate, 3'-pyridyl 9-oxo-13-trans-prostenoate]
MIC [1]: 50 µg/mL (≈ 125 µM)
minimal effective dose (diastolic blood pressure): 0.4 to 4 mg/kg
IC50 [2, 6]: 12 µg/mL (≈ 30 µM)

CCCCCC/C=C/[C@@H]1CCC(=NNc2ccc(C(=O)O)cc2)[C@H]1CCCCCCC(=O)O (relative stereo) [9-Oxo-13-trans-prostenoic acid p-carboxyphenylhydrazone]
ED50 [3]: 5.55 mg/kg
ED50 [4]: 3.2 mg/kg
ED50 [5]: 0.931 mg/kg

C=C1CC[C@@H](/C=C/CCCCCC)[C@@H]1CCCCCCC(=O)O (relative stereo) [9-methylene-13-trans-prostenoic acid, 9-Methylene-13-trans-prostenoic acid]
ED50 [3]: > 10 mg/kg
ED50 [4]: 14.1 mg/kg
ED50 [5]: 1.45 mg/kg

CCCCCC/C=C/[C@@H]1CCC(=O)[C@H]1CCCCSCC(=O)O (relative stereo) [9-oxo-3-thia-13-trans-prostenoic acid]
ED50 [3]: 2.43 mg/kg
ED50 [4]: 1.56 mg/kg
ED50 [5]: 1.24 mg/kg
IC50 [2, 6]: 20 µg/mL (≈ 58.7 µM)

CCCCCC/C=C/[C@@H]1CCC(=O)[C@H]1C/C=C\CCCC(=O)O (relative stereo) [9-oxo-5-cis,13-trans-prostadienoic acid, 9-oxo-5-cis-13-trans-prostadienoic acid]
ED50 [3]: 4.36 mg/kg
ED50 [4]: 1.5 mg/kg
ED50 [5]: 1.42 mg/kg
IC50 [2, 6]: 9 µg/mL (≈ 28.1 µM)
IC50 [2, 7]: 0.9 µg/mL (≈ 2.81 µM)

CCS(=O)(=O)CCC/C=C/[C@H]1CCC(=O)[C@@H]1CCCCCCC(=O)O (relative stereo) [9-oxo-18-dioxythia-13-trans-prostenoic acid]
ED50 [3]: > 10 mg/kg
ED50 [4]: > 10 mg/kg
ED50 [5]: 9.87 mg/kg

CCCCCC/C=C/[C@@H]1CC[C@@H](O)[C@H]1CCCCCCC(=O)O (relative stereo) [9α-hydroxy-13-trans-prostenoic acid]
ED50 [3]: 2.53 mg/kg
ED50 [4]: 0.559 mg/kg
ED50 [5]: 0.268 mg/kg

CCOC(=O)CCCCCC[C@H]1C(=O)CC[C@@H]1/C=C/CCCSCC (relative stereo) [ethyl 9-oxo-18-thia-13-trans-prostenoate]
MIC [1]: 250 µg/mL (≈ 678 µM)
minimal effective dose (diastolic blood pressure): 2 mg/kg

CCCCC/C=C/[C@H]1CCC(=O)[C@@H]1CCCCCCC(=O)OCC (relative stereo) [ethyl 9-oxo-20-nor-13-trans-prostenoate]
MIC [1]: 62 µg/mL (≈ 184 µM)
minimal effective dose (diastolic blood pressure): 0.6 mg/kg

CCOC(=O)CCCCCC[C@H]1C(=O)CC[C@@H]1/C=C/CCC(C)C (relative stereo) [ethyl 17-methyl-9-oxo-19,10-dinor-13-trans-rpostenoate]
MIC [1]: 62 µg/mL (≈ 184 µM)
inhibition in vivo at 100 mg/kg (gastric acid secretion): 21%
minimal effective dose (diastolic blood pressure): 10 mg/kg

CCOC(=O)CCCCCC[C@H]1C(=O)CC[C@@H]1/C=C/CCCC(C(=O)OCC)C(=O)OCC (relative stereo) [ethyl 20,20-dicarbethoxy-9-oxo-18,19-dinor-13-trans-prostenoate]
MIC [1]: 250 µg/mL (≈ 536 µM)
inhibition in vivo at 100 mg/kg (gastric acid secretion): 38%
minimal effective dose (diastolic blood pressure): 8 mg/kg

CCCCCCC=CC1CCC(O)(c2ccccc2)C1CCCCCCC(=O)O (stereo not drawn) [9-hydroxy-9-phenyl-13-trans-prostenoic acid]
ED50 [3]: > 10 mg/kg
ED50 [4]: 2.44 mg/kg
ED50 [5]: 5.27 mg/kg

CCCCCC/C=C/[C@H]1CCC(=O)[C@@H]1CCCCCC(CC)C(=O)O (stereo partly drawn) [9-oxo-2-ethyl-13-trans-prostenoic acid, 2-ethyl-9-oxo-13-trans-prostenoic acid]
ED50 [3]: > 10 mg/kg
ED50 [4]: 2.91 mg/kg
ED50 [5]: 7.75 mg/kg
IC50 [2, 6]: 15 µg/mL (≈ 42.8 µM)
IC50 [2, 7]: 4 to 5 µg/mL (≈ 11.4 to 14.3 µM)

CCCCCC/C=C/[C@H]1CC(C)C(=O)[C@@H]1CCCCCCC(=O)O (stereo partly drawn) [9-oxo-10-methyl-13-trans-prostenoic acid]
ED50 [3]: 73.2 mg/kg
ED50 [4]: 1.84 mg/kg
ED50 [5]: 0.303 mg/kg

CC(C)C/C=C/[C@H]1CCC(O)[C@@H]1CCCCCCC(=O)O (stereo partly drawn) [9α/β-hydroxy-16-methyl-18,19,20-trinor-13-trans-prostenoic acid]
ED50 [3]: > 10 mg/kg
ED50 [4]: > 10 mg/kg
ED50 [5]: 3.47 mg/kg
